Measured values taken from patent US9539260B2, “Dihydro-benzo-oxazine and dihydro-pyrido-oxazine derivatives” (Novartis AG, priority 2012, dated 2017).

Legend:
PI3K alpha = PI3K alpha (Homo sapiens (Human), UniProt P42336); assay: Enzymatic PI3K alpha isoform inhibition (lipid kinase activity, Kinase-Glo luminescence); type: biochemical; conditions: Enzymatic assay
How it was run: (§1)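 IC50s derive from 4-parameter logistic fits of % inhibition across 8 concentrations (usually 10 to 0.003 μM). Lipid kinase reaction: PI3K (10 nM) plus phosphatidylinositol (5 μg/mL) started with 2 μM ATP, stopped near 50% ATP depletion; leftover ATP quantified by Kinase-Glo luminescence.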

PI3K delta = PI3K delta (Homo sapiens (Human), UniProt O00329); assay: Enzymatic PI3K delta isoform inhibition (lipid kinase activity, Kinase-Glo luminescence); type: biochemical; conditions: Enzymatic assay
PI3K delta, sequence (O00329 other isoform, or with tags, fused parts or gaps linker GGGGGG): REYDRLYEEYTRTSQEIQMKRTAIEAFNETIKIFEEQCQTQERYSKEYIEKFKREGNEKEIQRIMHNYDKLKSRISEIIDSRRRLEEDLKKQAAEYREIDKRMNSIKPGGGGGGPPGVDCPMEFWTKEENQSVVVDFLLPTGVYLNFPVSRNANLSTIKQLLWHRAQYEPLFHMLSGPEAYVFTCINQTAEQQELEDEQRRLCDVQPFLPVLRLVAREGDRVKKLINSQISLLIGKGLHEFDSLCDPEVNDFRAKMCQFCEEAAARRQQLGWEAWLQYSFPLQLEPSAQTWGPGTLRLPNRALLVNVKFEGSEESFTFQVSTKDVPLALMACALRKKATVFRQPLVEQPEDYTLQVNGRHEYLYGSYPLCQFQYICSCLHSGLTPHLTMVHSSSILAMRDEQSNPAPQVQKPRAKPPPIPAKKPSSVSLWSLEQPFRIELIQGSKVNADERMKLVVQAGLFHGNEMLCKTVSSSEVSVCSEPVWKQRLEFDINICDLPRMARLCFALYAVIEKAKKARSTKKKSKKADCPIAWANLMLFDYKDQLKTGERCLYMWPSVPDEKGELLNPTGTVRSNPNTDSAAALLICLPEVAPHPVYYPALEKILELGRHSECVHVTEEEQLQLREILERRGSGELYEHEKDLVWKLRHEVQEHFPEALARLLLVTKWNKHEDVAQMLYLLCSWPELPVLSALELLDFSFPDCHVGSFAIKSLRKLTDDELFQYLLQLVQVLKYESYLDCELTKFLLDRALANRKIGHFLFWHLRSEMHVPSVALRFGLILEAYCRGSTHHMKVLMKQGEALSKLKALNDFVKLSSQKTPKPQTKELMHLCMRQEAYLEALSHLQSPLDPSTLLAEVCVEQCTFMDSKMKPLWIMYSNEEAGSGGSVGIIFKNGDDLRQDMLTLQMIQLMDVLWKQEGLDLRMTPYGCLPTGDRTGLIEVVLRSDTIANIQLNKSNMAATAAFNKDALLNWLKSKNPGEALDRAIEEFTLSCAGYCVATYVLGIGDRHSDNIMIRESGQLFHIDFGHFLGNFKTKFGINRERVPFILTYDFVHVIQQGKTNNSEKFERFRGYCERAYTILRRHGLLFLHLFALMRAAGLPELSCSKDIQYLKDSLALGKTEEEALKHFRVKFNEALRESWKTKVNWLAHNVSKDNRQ
How it was run: as §1

PI3K alpha, sequence (P42336 other isoform, or with tags, fused parts or gaps): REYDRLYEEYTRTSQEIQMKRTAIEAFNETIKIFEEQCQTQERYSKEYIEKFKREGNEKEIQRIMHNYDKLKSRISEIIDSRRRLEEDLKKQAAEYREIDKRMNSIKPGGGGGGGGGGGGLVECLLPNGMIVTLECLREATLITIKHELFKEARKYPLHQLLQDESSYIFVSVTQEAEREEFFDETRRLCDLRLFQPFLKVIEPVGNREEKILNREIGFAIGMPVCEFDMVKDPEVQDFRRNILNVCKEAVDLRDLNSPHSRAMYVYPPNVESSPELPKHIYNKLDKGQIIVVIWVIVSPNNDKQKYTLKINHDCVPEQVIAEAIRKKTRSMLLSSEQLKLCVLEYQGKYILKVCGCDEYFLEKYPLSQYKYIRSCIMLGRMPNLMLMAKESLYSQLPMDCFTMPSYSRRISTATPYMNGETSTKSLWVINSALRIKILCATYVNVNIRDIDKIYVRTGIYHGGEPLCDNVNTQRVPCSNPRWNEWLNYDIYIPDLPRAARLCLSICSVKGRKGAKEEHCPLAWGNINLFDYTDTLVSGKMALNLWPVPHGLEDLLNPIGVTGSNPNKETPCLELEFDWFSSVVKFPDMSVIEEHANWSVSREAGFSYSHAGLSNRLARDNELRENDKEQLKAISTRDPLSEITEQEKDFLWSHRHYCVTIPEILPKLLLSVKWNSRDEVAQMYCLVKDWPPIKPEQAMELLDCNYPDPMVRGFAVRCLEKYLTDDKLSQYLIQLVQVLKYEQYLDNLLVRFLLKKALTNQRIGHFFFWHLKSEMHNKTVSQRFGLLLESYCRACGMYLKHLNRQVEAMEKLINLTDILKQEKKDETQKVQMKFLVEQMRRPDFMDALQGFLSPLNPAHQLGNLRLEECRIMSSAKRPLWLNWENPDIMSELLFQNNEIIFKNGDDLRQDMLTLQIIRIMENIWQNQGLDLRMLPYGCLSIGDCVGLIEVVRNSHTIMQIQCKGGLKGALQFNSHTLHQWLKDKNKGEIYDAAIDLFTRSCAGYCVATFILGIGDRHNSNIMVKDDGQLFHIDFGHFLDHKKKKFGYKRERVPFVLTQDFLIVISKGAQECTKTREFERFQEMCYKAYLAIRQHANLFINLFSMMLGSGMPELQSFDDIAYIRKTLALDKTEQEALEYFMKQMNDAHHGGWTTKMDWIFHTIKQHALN

| Compound | IC50 (PI3K alpha) | IC50 (PI3K delta) |
| --- | --- | --- |
| COc1cc(N2CCOc3ccc(O[C@H]4CCN(C(=O)CCO)C4)cc32)cnc1Cl [Example B57, 1-{(S)-3-[4-(6-Chloro-5-methoxy-pyridin-3-yl)-3,4-dihydro-2H-benzo[1,4]oxazin-6-yloxy]-pyrrolidin-1-yl}-3-hydroxy-propan-1-one] | 2270 nM | 95 nM |
| Cc1cc(N2CCOc3ccc(O[C@H]4CCN(C(=O)C5CCOCC5)C4)cc32)cnc1Cl [Example B58, {(S)-3-[4-(6-Chloro-5-methyl-pyridin-3-yl)-3,4-dihydro-2H-benzo[1,4]oxazin-6-yloxy]-pyrrolidin-1-yl}-(tetrahydro-pyran-4-yl)-methanone] | 366 nM | 4 nM |
| CCC(=O)N1CC[C@H](Oc2ccc3c(c2)N(c2cnc(Cl)c(C)c2)CCO3)C1 [Example B59, 1-{(S)-3-[4-(6-Chloro-5-methyl-pyridin-3-yl)-3,4-dihydro-2H-benzo[1,4]oxazin-6-yloxy]-pyrrolidin-1-yl}-propan-1-one] | 461 nM | 17 nM |
| Cc1cc(N2CCOc3ccc(O[C@H]4CCN(C(=O)C5CCS(=O)(=O)CC5)C4)cc32)cnc1Cl [Example B60, {(S)-3-[4-(6-Chloro-5-methyl-pyridin-3-yl)-3,4-dihydro-2H-benzo[1,4]oxazin-6-yloxy]-pyrrolidin-1-yl}-(1,1-dioxo-hexahydro-1lambda*6*-thiopyran-4-yl)-methanone] | 463 nM | 11 nM |
| Cc1cc(N2CCOc3ccc(O[C@H]4CCN(C(=O)CCO)C4)cc32)cnc1Cl [Example B61, 1-{(S)-3-[4-(6-Chloro-5-methyl-pyridin-3-yl)-3,4-dihydro-2H-benzo[1,4]oxazin-6-yloxy]-pyrrolidin-1-yl}-3-hydroxy-propan-1-one] | 732 nM | 37 nM |
| COc1cc(N2CCOc3ccc(O[C@H]4CCN(C(=O)c5ccc(=O)[nH]c5)C4)cc32)cnc1Cl [Example B63, 5-{(S)-3-[4-(6-Chloro-5-methoxy-pyridin-3-yl)-3,4-dihydro-2H-benzo[1,4]oxazin-6-yloxy]-pyrrolidine-1-carbonyl}-1H-pyridin-2-one] | 1520 nM | 68 nM |
| COc1cc(N2CCOc3ccc(O[C@H]4CCN(C(=O)[C@H]5CC[C@H](O)CC5)C4)cc32)cnc1OC [Example B66, {(S)-3-[4-(5,6-Dimethoxy-pyridin-3-yl)-3,4-dihydro-2H-benzo[1,4]oxazin-6-yloxy]-pyrrolidin-1-yl}-(4-hydroxy-cyclohexyl)-methanone] | 446 nM | 11 nM |
| Cc1cnccc1C(=O)N1CC[C@H](Oc2ccc3c(c2)N(c2cnc(S(C)(=O)=O)c(C)c2)CCO3)C1 [Example B67, {(S)-3-[4-(6-Methanesulfonyl-5-methyl-pyridin-3-yl)-3,4-dihydro-2H-benzo[1,4]oxazin-6-yloxy]-pyrrolidin-1-yl}-(3-methyl-pyridin-4-yl)-methanone] | 804 nM | 25 nM |
| Cc1cc(N2CCOc3ccc(O[C@H]4CCN(C(=O)Cc5ccncc5)C4)cc32)cnc1S(C)(=O)=O [Example B68, 1-{(S)-3-[4-(6-Methanesulfonyl-5-methyl-pyridin-3-yl)-3,4-dihydro-2H-benzo[1,4]oxazin-6-yloxy]-pyrrolidin-1-yl}-2-pyridin-4-yl-ethanone] | 840 nM | 39 nM |
| CS(=O)(=O)c1ncc(N2CCOc3ccc(O[C@H]4CCN(C(=O)C5CCOCC5)C4)cc32)cc1C(F)(F)F [Example B69, {(S)-3-[4-(6-Methanesulfonyl-5-trifluoromethyl-pyridin-3-yl)-3,4-dihydro-2H-benzo[1,4]oxazin-6-yloxy]-pyrrolidin-1-yl}-(tetrahydro-pyran-4-yl)-methanone] | 189 nM | 5 nM |
| CS(=O)(=O)c1ncc(N2CCOc3ccc(O[C@H]4CCN(C(=O)C5CCOCC5)C4)cc32)cc1C(F)F [Example B70, {(S)-3-[4-(5-Difluoromethyl-6-methanesulfonyl-pyridin-3-yl)-3,4-dihydro-2H-benzo[1,4]oxazin-6-yloxy]-pyrrolidin-1-yl}-(tetrahydro-pyran-4-yl)-methanone] | 134 nM | 3 nM |
| CS(=O)(=O)c1ncc(N2CCOc3ccc(O[C@H]4CCN(C(=O)C5CCOCC5)C4)cc32)cc1CF [Example B71, {(S)-3-[4-(5-Fluoromethyl-6-methanesulfonyl-pyridin-3-yl)-3,4-dihydro-2H-benzo[1,4]oxazin-6-yloxy]-pyrrolidin-1-yl}-(tetrahydro-pyran-4-yl)-methanone] | 360 nM | 5.5 nM |
| Cc1cc(N2CCOc3ccc(O[C@H]4CCN(C(=O)C5CCOCC5)C4)cc32)cnc1OC(F)F [Example B72, {(S)-3-[4-(6-Difluoromethoxy-5-methyl-pyridin-3-yl)-3,4-dihydro-2H-benzo[1,4]oxazin-6-yloxy]-pyrrolidin-1-yl}-(tetrahydro-pyran-4-yl)-methanone] | 2060 nM | 32 nM |
| Cc1cc(N2CCOc3ccc(O[C@H]4CCN(C(=O)C5CCS(=O)(=O)CC5)C4)cc32)cnc1OC(F)F [Example B73, {(S)-3-[4-(6-Difluoromethoxy-5-methyl-pyridin-3-yl)-3,4-dihydro-2H-benzo[1,4]oxazin-6-yloxy]-pyrrolidin-1-yl}-(1,1-dioxo-hexahydro-6-thiopyran-4-yl)-methanone] | 1770 nM | 30 nM |
| Cn1cnc(C(=O)N2CC[C@H](Oc3ccc4c(c3)N(c3cnc(S(C)(=O)=O)c(C(F)F)c3)CCO4)C2)c1 [Example B74] | 54 nM | 9 nM |
| CS(=O)(=O)c1ncc(N2CCOc3ccc(O[C@H]4CCN(C(=O)[C@@H]5CCOC5)C4)cc32)cc1C(F)F [Example B75, {(S)-3-[4-(5-Difluoromethyl-6-methanesulfonyl-pyridin-3-yl)-3,4-dihydro-2H-benzo[1,4]oxazin-6-yloxy]-pyrrolidin-1-yl}-(R)-tetrahydro-furan-3-yl-methanone] | 211 nM | 11 nM |
| CS(=O)(=O)c1ncc(N2CCOc3ccc(O[C@H]4CCN(C(=O)[C@H]5CCOC5)C4)cc32)cc1C(F)F [Example B76, {(S)-3-[4-(5-Difluoromethyl-6-methanesulfonyl-pyridin-3-yl)-3,4-dihydro-2H-benzo[1,4]oxazin-6-yloxy]-pyrrolidin-1-yl}-(S)-tetrahydro-furan-3-yl-methanone] | 399 nM | 61 nM |
| CNc1cc(N2CCOc3ccc(O[C@H]4CCN(C(=O)C5CCOCC5)C4)cc32)cnc1S(C)(=O)=O [Example B77, {(S)-3-[4-(6-Methanesulfonyl-5-methylamino-pyridin-3-yl)-3,4-dihydro-2H-benzo[1,4]oxazin-6-yloxy]-pyrrolidin-1-yl}-(tetrahydro-pyran-4-yl)-methanone] | 897 nM | 32 nM |
| CS(=O)(=O)c1ncc(N2CCOc3ccc(O[C@H]4CCN(C(=O)C5CCOCC5)C4)cc32)cc1Cl [Example B79, {(S)-3-[4-(5-Chloro-6-methanesulfonyl-pyridin-3-yl)-3,4-dihydro-2H-benzo[1,4]oxazin-6-yloxy]-pyrrolidin-1-yl}-(tetrahydro-pyran-4-yl)-methanone] | 661 nM | 3 nM |
| Cc1cc(N2CCOc3ccc(O[C@H]4CCN(C(=O)C5CC5)C4)cc32)cnc1S(C)(=O)=O [Example B80, Cyclopropyl-{(S)-3-[4-(6-methanesulfonyl-5-methyl-pyridin-3-yl)-3,4-dihydro-2H-benzo[1,4]oxazin-6-yloxy]-pyrrolidin-1-yl}-methanone] | 295 nM | 4 nM |
| Cc1cc(N2CCOc3ccc(O[C@H]4CCN(S(=O)(=O)C5CCOCC5)C4)cc32)cnc1S(C)(=O)=O [Example B81, 4-(6-Methanesulfonyl-5-methyl-pyridin-3-yl)-6-[(S)-1-(tetrahydro-pyran-4-sulfonyl)-pyrrolidin-3-yloxy]-3,4-dihydro-2H-benzo[1,4]oxazine] | 482 nM | 81 nM |
| Cc1cc(N2CCOc3ccc(O[C@H]4CCN(S(=O)(=O)C(C)C)C4)cc32)cnc1S(C)(=O)=O [Example B82, 4-(6-Methanesulfonyl-5-methyl-pyridin-3-yl)-6-[(S)-1-(propane-2-sulfonyl)-pyrrolidin-3-yloxy]-3,4-dihydro-2H-benzo[1,4]oxazine] | 353 nM | 66 nM |
| Cc1cc(N2CCOc3ccc(O[C@H]4CCN(S(=O)(=O)C5CC5)C4)cc32)cnc1S(C)(=O)=O [Example B83, 6-((S)-1-Cyclopropanesulfonyl-pyrrolidin-3-yloxy)-4-(6-methanesulfonyl-5-methyl-pyridin-3-yl)-3,4-dihydro-2H-benzo[1,4]oxazine] | 214 nM | 29 nM |
| CCS(=O)(=O)N1CC[C@H](Oc2ccc3c(c2)N(c2cnc(S(C)(=O)=O)c(C)c2)CCO3)C1 [Example B84, 6-((S)-1-Ethanesulfonyl-pyrrolidin-3-yloxy)-4-(6-methanesulfonyl-5-methyl-pyridin-3-yl)-3,4-dihydro-2H-benzo[1,4]oxazine] | 346 nM | 80 nM |
| CS(=O)(=O)c1ncc(N2CCOc3ccc(O[C@H]4CCN(C(=O)C5CCOCC5)C4)cc32)cc1F [Example B86, {(S)-3-[4-(5-Fluoro-6-methanesulfonyl-pyridin-3-yl)-3,4-dihydro-2H-benzo[1,4]oxazin-6-yloxy]-pyrrolidin-1-yl}-(tetrahydro-pyran-4-yl)-methanone] | 6630 nM | 61 nM |
| CCS(=O)(=O)c1ccc(N2CCOc3ccc(O[C@H]4CCN(C(=O)C5CCOCC5)C4)cc32)cn1 [Example B87, {(S)-3-[4-(6-Ethanesulfonyl-pyridin-3-yl)-3,4-dihydro-2H-benzo[1,4]oxazin-6-yloxy]-pyrrolidin-1-yl}-(tetrahydro-pyran-4-yl)-methanone] | 7090 nM | 29 nM |
| COc1ncc(N2CCOc3ccc(O[C@H]4CCN(C(=O)c5cncn5C)C4)cc32)cc1C [Example B88, {(S)-3-[4-(6-Methoxy-5-methyl-pyridin-3-yl)-3,4-dihydro-2H-benzo[1,4]oxazin-6-yloxy]-pyrrolidin-1-yl}-(3-methyl-3H-imidazol-4-yl)-methanone] | 234 nM | 8 nM |
